Assay results as given in patent publication US8183379B2, “Antitumor agents” (Wayne State University, priority 2005, dated 2012).
Where two headings read alike, the source gives them in different places.

Experiments:
[1] = tested on: Mammary Adenocarcinoma 16/C; test: Exp 2877A: evaluation against early stage Mammary Adenocarcinoma 16/C implanted SC in C3H female mice; assay type: in vivo
Experimental: In Experiment #2877A the following general methodologies were employed:
Tumor and Animal Maintenance
Mammary adenocarcinoma-16/C were used in the studies. […] The mice were supplied food and water ad libitum.
Chemotherapy of Solid Tumors
Animals were pooled, implanted subcutaneously with 30 to 60 mg tumor fragments by a 12 gauge trocar on day 0, and again pooled before unselective distribution to the various treatment and control groups. For early stage treatment, chemotherapy was started within 1 to 3 days after tumor implantation while the number of cells was relatively small (10^7 to 10^8 cells). Tumors were measured with a caliper twice weekly. Mice were sacrificed when their tumors reached 1500 mg. Tumor weights are estimated from two-dimensional measurements:
Tumor weight (in mg)=(a×b^2)/2, where a and b are the tumor length and width in (mm), respectively.
End Points for Assessing Antitumor Activity for Solid Tumors
The following quantitative endpoints were used to assess antitumor activity: • a) Tumor growth delay (T−C value), where T is the median time (in days) required for the treatment group tumors to reach a predetermined size (e.g., 1000 mg), and C is the median time (in days) for the control group tumors to reach the same size. Tumor-free survivors are excluded from these calculations (cures are tabulated separately). This value is an important criterion of antitumor effectiveness because it allows the quantification of tumor cell kill. • b) Calculation of tumor cell kill For subcutaneously (SC) growing tumors, the log10 cell kill was calculated from the following formula:
[formula] where T−C is the tumor growth delay as described above and Td is the tumor volume doubling time (in days), estimated from the best fit straight line from a log-linear growth plot of the control group tumors in exponential growth (100 to 800 mg range). The conversion of the T−C values to log10 cell kill is possible because the Td of tumors regrowing post treatment (Rx) approximates the Td values of the tumors in untreated control mice.
The issue of conversion of tumor growth delay (T−C value) to log tumor cell kill is justified in this series because of the large number of cures obtained with 5 of the agents in this XK469 series that have been previously studied and patented. Cures are a clear indication of tumor cell kill (rather than stasis of tumor cell replication).
In selected cases, both for historic in vivo evaluation data as well as data presented here, it is of value to compare log kill numbers from trials of markedly different testing schedules. For this purpose, an activity table was created, and is presented below. It should be noted that an activity rating of +++ to ++++ is needed to effect partial regression (PR) or complete regression (CR) of 100 to 300 mg size masses of most transplanted solid tumors of mice. Thus, an activity rating of + or ++ would not be scored as active by usual clinical criteria. A PR is a reduction in tumor mass to less than 50% of pretreatment size. A CR is a reduction in tumor mass to below palpable size (i.e., reduction to zero detectable mass).

[2] = Experimental: Mammary adenocarcinoma-16/C were used in the studies. Tumors were maintained in the mouse strain of origin C3H (for the mammary tumors). Individual mouse body weights for each experiment were within 5 grams, and all mice were over 17 grams at the start of therapy. The mice were supplied food and water ad libitum.
The treatment and control groups were measured when the control group tumors reach approximately 700 to 1200 mg in size (median of group). The T/C value in percent is an indication of antitumor effectiveness: A T/C=0% means no tumor growth. […] A T/C equal to or less than 42% is considered significant antitumor activity by the Drug Evaluation Branch of the Division of Cancer Treatment (NCI). A T/C value <10% is considered to indicate highly significant antitumor activity, and is the level used by NCI to justify a clinical trial if toxicity, formulation, and certain other requirements are met (termed DN-2 level activity).

[3] = tested on: transplantable mouse tumors; details: cited from earlier work
[4] = Cg 8, IV Qd1,3,5,7-13, 57-125 mg/kg, total 822 mg/kg
[5] = Cg 9, IV Qd1,3,5,7-13, 36-75 mg/kg, total 513 mg/kg
[6] = Cg 4, IV Q2dx7, 54 mg/kg, total 378 mg/kg
[7] = Cg 5, IV Q2dx7, 34 mg/kg, total 238 mg/kg
[8] = Cg 6, IV Q2dx7, 48-60 mg/kg, total 372 mg/kg
[9] = Cg 7, IV Q2dx7, 30-38 mg/kg, total 234 mg/kg

Structure (SMILES): COc1c(F)ccc2ccc(Oc3ccc(OC(C)C(=O)O)cc3)nc12 (stereo not drawn) [SH144R, 2-(4-(7-Fluoro-8-methoxyquinolin-2-yloxy)phenoxy)propanoic acid]
- Activity rating (Comments) [1, 4]: (++++) (Highly active ++++ >2.8)
- Log Cell Kill Gross [1, 4]: 4.1
- Log Cell Kill Net [1, 4]: 0.5
- Median Tumor Burden in mg on d10 [1, 4]: 0 mg
- T-C [1, 4]: 13.5 days
- T/C % [1, 4]: 0%
- Time to 1000 mg [1, 4]: 22.5 days
- Tumor Free on d43 [1, 4]: 0/4
- Activity rating (Comments) [1, 5]: (+++) (2.0-2.8)
- Log Cell Kill Gross [1, 5]: 2.1
- Log Cell Kill Net [1, 5]: −1.5
- Median Tumor Burden in mg on d10 [1, 5]: 320 mg
- T-C [1, 5]: 7 days
- T/C % [1, 5]: 28%
- Time to 1000 mg [1, 5]: 16 days
- Tumor Free on d43 [1, 5]: 0/5
- Drug Death (day of death) [2, 4]: 0/4
- Drug Death (day of death) ([2]; Cg 8, IV Qd1,3,5,7-13, 57-125 mg/kg, total 822 mg/kg, listed as SH 144(R)): no drug deaths
- Drug Death (day of death) [2, 5]: 0/5

Structure (SMILES): CC(Oc1ccc(Oc2cnc3ccc(Cl)cc3n2)cc1)C(=O)[O-].[Na+] (stereo not drawn) [XK469]
- activity against transplantable mouse tumors ([3]; Corbett et al., Investigational New Drugs 16, 129-139 (1998)): broad activity
- undesirable side effects ([3]; reported, in vivo): in vivo toxicity, e.g., paralytic ileus, GI-epithelial damage, marrow toxicity, neuromuscular toxicity and weight loss
- potency ([3]; reported): relatively low potency

Structure (SMILES): COc1c(Br)ccc2ccc(Oc3ccc(OC(C)C(=O)O)cc3)nc12 (stereo not drawn) [SH135R, 2-(4-(7-Bromo-8-methoxyquinolin-2-yloxy)phenoxy)propanoic acid]
- Activity rating (Comments) [1, 6]: (++++) (Highly active ++++ >2.8)
- Log Cell Kill Gross [1, 6]: 5.0
- Log Cell Kill Net [1, 6]: 1.4
- Median Tumor Burden in mg on d10 [1, 6]: 0 mg
- T-C [1, 6]: 16.5 days
- T/C % [1, 6]: 0%
- Time to 1000 mg [1, 6]: 25.5 days
- Tumor Free on d43 [1, 6]: 0/5
- Activity rating (Comments) [1, 7]: (++++) (Highly active ++++ >2.8)
- Log Cell Kill Gross [1, 7]: 4.2
- Log Cell Kill Net [1, 7]: 0.6
- Median Tumor Burden in mg on d10 [1, 7]: 63 mg
- T-C [1, 7]: 14 days
- T/C % [1, 7]: 5.5%
- Time to 1000 mg [1, 7]: 23 days
- Tumor Free on d43 [1, 7]: 0/4
- T/C % ([1]; Cg 5, IV Q2dx7, 34 mg/kg, total 238 mg/kg, listed as SH 135(R)): 0%

Structure (SMILES): COc1c(Cl)ccc2ccc(Oc3ccc(OC(C)C(=O)O)cc3)nc12 (stereo not drawn) [SH140R, 2-(4-(7-Chloro-8-methoxyquinolin-2-yloxy)phenoxy)propanoic acid]
- Activity rating (Comments) [1, 8]: (++++) (Highly active ++++ >2.8)
- Log Cell Kill Gross [1, 8]: 4.8
- Log Cell Kill Net [1, 8]: 1.2
- Median Tumor Burden in mg on d10 [1, 8]: 0 mg
- T-C [1, 8]: 16 days
- T/C % [1, 8]: 0%
- Time to 1000 mg [1, 8]: 25 days
- Tumor Free on d43 [1, 8]: 0/5
- Activity rating (Comments) [1, 9]: (++++) (Highly active ++++ >2.8)
- Log Cell Kill Gross [1, 9]: 3.6
- Log Cell Kill Net [1, 9]: 0
- Median Tumor Burden in mg on d10 [1, 9]: 63 mg
- T-C [1, 9]: 12 days
- T/C % [1, 9]: 5.5%
- Time to 1000 mg [1, 9]: 21 days
- Tumor Free on d43 [1, 9]: 0/5
- Drug Death (day of death) [2, 8]: 0/5
- Drug Death (day of death) [2, 9]: 0/5
